Among the data in patent US6387896B1, “Bicyclic oxazolidinones as antibacterial agents” (Pharmacia & Upjohn Co., priority 1999, dated 2002) are MIC and melting point values, retold here.

Values after ≈ are worked out from the molar mass of the structure shown.

Data set [1] has as its system Methicillin-susceptible S. aureus UC® 9213. In words: Minimum inhibitory concentration (MIC) by agar dilution, S. aureus. It is filed as cell-based. The note with it: Staphylococcus aureus, UC9213, lowest concentration that inhibits visible growth. An excerpt: (§1) The oxazolidinone antibacterial agents of this invention have useful activity against a variety of organisms. The in vitro activity of compounds of this invention can be assessed by standard testing procedures such as the determination of minimum inhibitory concentration (MIC) by agar dilution as described in “Approved Standard. Methods for Dilution Antimicrobial Susceptibility Tests for Bacteria That Grow Aerobically”, 3rd. ed., published 1993 by the National Committee for Clinical Laboratory Standards, Villanova, Pa., USA. The activity of compounds of this invention against Staphylococcus aureus, Staphylococcus epidermidis, Streptococcus pneumoniae, Enterococcus faecalis, Moraxella catarrhalis and H. influenzae is shown in Table 1. No. 1 is Methicillin-susceptible S. aureus UC® 9213. No. 2 is Moraxella catarrhalis UC® 30610. Minimum inhibitory concentration: lowest concentration of drug (μg/mL) that inhibits visible growth of the organism.

Data set [2] has as its system Moraxella catarrhalis UC® 30610. Description: Minimum inhibitory concentration (MIC) by agar dilution, Moraxella catarrhalis. The class given is cell-based. The note with it: UC30610, lowest concentration that inhibits visible growth, read-out: Minimum Inhibitory Concentration M.CAT.
Description: as §1
On the technique in general: In agar dilution, organisms are placed on agar that contains the substance at set levels.

With `CC(=O)NCC1CN(c2ccc3c(c2)CC(C)S3)C(=O)O1` (stereo in doubt) [Example 20, N-{[(5R)-3-(2(+)-methyl-2,3-dihydro-1-benzothien-5-yl)-2-oxo-1,3-oxazolidin-5-yl]methyl}acetamide], the values for the MIC in data set [1] and in data set [2] were 4 µg/mL (≈ 13.1 µM) and 16 µg/mL (≈ 52.2 µM), respectively.

The compound `CC(=S)NC[C@H]1CN(c2ccc3c(c2)C[C@@H](C)N3C=O)C(=O)O1` [Example 6, N-({(5S)-3-[(2R)-1-Formyl-2-methyl-2,3-dihydro-1H-indol-5-yl]-2-oxo-1,3-oxazolidin-5-yl}methyl)ethanethioamide] displayed a melting point of 95 to 96 °C. Further, the MIC in data set [1] is less than 0.5 µg/mL. Besides, in data set [2], the MIC came to 1 µg/mL (≈ 3 µM).

With `CCC(=O)NC[C@H]1CN(c2ccc3c(c2)C[C@@H](C)N3C=O)C(=O)O1` [Example 5, N-({(5S)-3-[(2R)-1-Formyl-2-methyl-2,3-dihydro-1H-indol-5-yl]-2-oxo-1,3-oxazolidin-5-yl}methyl)propanamide], the melting point is 118 to 119 °C. The same compound gave an MIC in data set [1] of 2 µg/mL (≈ 6.04 µM). In addition, the MIC in data set [2] was found to be 4 µg/mL (≈ 12.1 µM).

As for `COCC(=O)N1c2ccc(N3C[C@H](CNC(C)=O)OC3=O)cc2C[C@H]1C` [Example 7, N-({(5S)-3-[(2R)-1-(2-Methoxyacetyl)-2-methyl-2,3-dihydro-1H-indol-5-yl]-2-oxo-1,3-oxazolidin-5-yl}methyl)acetamide], the melting point fell in the range of 174 to 175 °C. For the same compound, the MIC in data set [1] is 4 µg/mL (≈ 11.1 µM). Besides, the MIC in data set [2] came out at 8 µg/mL (≈ 22.1 µM).

Take `CC(=O)NC[C@H]1CN(c2ccc(N3CCOCC3)c(F)c2)C(=O)O1` [linezolid, reference compound]: the results for the MIC in data set [1] and in data set [2] were 4 µg/mL (≈ 11.9 µM) and 8 µg/mL (≈ 23.7 µM), respectively.

With `CC(=S)NC[C@H]1CN(c2ccc3c(c2)CC[C@@H](C)N3C=O)C(=O)O1` [Example 15, N-({(5S)-3-[(2R)-1-Formyl-2-methyl-1,2,3,4-tetrahydro-6-quinolinyl]-2-oxo-1,3-oxazolidin-5-yl}methyl)ethanethioamide], the melting point was in the range of 184 to 186 °C. In addition, the MIC in data set [1] is less than 0.5 µg/mL. Moreover, the MIC in data set [2] is 1 µg/mL (≈ 2.88 µM).

Compound `CC(=O)NC[C@H]1CN(c2ccc3c(c2)CC(C)N3CCF)C(=O)O1` (stereo partly drawn) [Example 1, N-({(5S)-3-[1-(2-Fluoroethyl)-2-methyl-2,3-dihydro-1H-indol-5-yl]-2-oxo-1,3-oxazolidin-5-yl}methyl)acetamide] gave a melting point of 127 to 130 °C.

With `CN[C@H](CC(C)C)C(=O)N[C@H]1C(=O)N[C@@H](CC(N)=O)C(=O)N[C@H]2C(=O)N[C@H]3C(=O)N[C@H](C(=O)N[C@H](C(=O)O)c4cc(O)cc(O)c4-c4cc3ccc4O)[C@H](O)c3ccc(c(Cl)c3)Oc3cc2cc(c3O[C@@H]2O[C@H](CO)[C@@H](O)[C@H](O)[C@H]2O[C@H]2C[C@](C)(N)[C@H](O)[C@H](C)O2)Oc2ccc(cc2Cl)[C@H]1O` [vancomycin, reference compound], the values for the MIC in data set [1] and in data set [2] were 1 µg/mL (≈ 0.69 µM) and more than 32 µg/mL, respectively.

The compound `CC(=O)NC[C@H]1CN(c2ccc3c(c2)OC[C@@H](C)N3C=O)C(=O)O1` [Example 17, N-({(5S)-3-[(3R)-4-Formyl-3-methyl-3,4-dihydro-2H-1,4-benzoxazin-7-yl]-2-oxo-1,3-oxazolidin-5-yl}methyl)acetamide] had a melting point of 148 to 151 °C. In addition, the MIC in data set [1] came to 4 µg/mL (≈ 12 µM). Further, the MIC in data set [2] was determined as 8 µg/mL (≈ 24 µM).

`CC(=O)NC[C@H]1CN(c2ccc3c(c2)C[C@@H](C)N3C(C)=O)C(=O)O1` [Example 9, N-({(5S)-3-[(2R)-1-Acetyl-2-methyl-2,3-dihydro-1H-indol-5-yl]-2-oxo-1,3-oxazolidin-5-yl}methyl)acetamide] gave a melting point of 184 to 185 °C. Besides, the MIC in data set [1] was 2 µg/mL (≈ 6.04 µM). The MIC in data set [2] is 8 µg/mL (≈ 24.1 µM).

Compound `CC(=O)NC[C@H]1CN(c2ccc3c(c2)CC(C)N3C(=O)CO)C(=O)O1` (stereo partly drawn) [Example 2, N-{[(5S)-3-(1-Glycoloyl-2-methyl-2,3-dihydro-1H-indol-5-yl)-2-oxo-1,3-oxazolidin-5-yl]methyl}acetamide] yielded a melting point of 130 to 133 °C.

On to `CC(=S)NC[C@H]1CN(c2ccc3c(c2)CC(C(C)(C)C)N3C=O)C(=O)O1` (stereo partly drawn) [Example 21, N-[[(5S)-3-[2-(1,1-dimethylethyl)-1-formyl-2,3-dihydro-1H-indol-5-yl]-2-oxo-5-oxazolidinyl]methyl]ethanethioamide], for which the melting point lay in the range of 219 to 221 °C. In data set [1], this compound had an MIC of 2 µg/mL (≈ 5.33 µM). For the same compound, in data set [2], the MIC is 4 µg/mL (≈ 10.7 µM).

Consider `CC(=O)NC[C@H]1CN(c2ccc3c(c2)OCC(C)N3C=O)C(=O)O1` (stereo partly drawn) [Example 16, N-{[(5S)-3-(4-Formyl-3-methyl-3,4-dihydro-2H-1,4-benzoxazin-7-yl)-2-oxo-1,3-oxazolidin-5-yl]methyl}acetamide], for which the melting point was 118 to 121 °C (dec.).

`CC(=S)NC[C@H]1CN(c2ccc3c(c2)OC[C@@H](C)N3C=O)C(=O)O1` [Example 18, N-({(5S)-3-[(3R)-4-Formyl-3-methyl-3,4-dihydro-2H-1,4-benzoxazin-7yl]-2-oxo-1,3-oxazolidin-5-yl}methyl)ethanethioamide] gave a melting point of 95 to 98 °C. Further, the MIC in data set [1] was less than 0.5 µg/mL. In addition, the MIC in data set [2] amounted to 2 µg/mL (≈ 5.72 µM).

Turning to `CC(=O)NC[C@H]1CN(c2ccc3c(c2)C[C@@H](C)N3C(=O)CO)C(=O)O1` [Example 3, N-({(5S)-3-[(2R)-1-Glycoloyl-2-methyl-2,3-dihydro-1H-indol-5-yl]-2-oxo-1,3-oxazolidin-5-yl}methyl)acetamide], the MIC in data set [1] and in data set [2] was 4 µg/mL (≈ 11.5 µM) throughout.

Turning to `CC(=S)NC[C@H]1CN(c2ccc3c(c2)C[C@@H](C)N3C(=O)CO)C(=O)O1` [Example 12, N-({(5S)-3-[(2R)-1-Glycoloyl-2-methyl-2,3-dihydro-1H-indol-5-yl]-2-oxo-1,3-oxazolidin-5-yl}methyl)ethanethioamide], the melting point is 115 to 117 °C. The compound also displayed an MIC in data set [1] of less than 0.5 µg/mL. In addition, the MIC in data set [2] was found to be 1 µg/mL (≈ 2.75 µM).

For `CC(=O)NC[C@H]1CN(c2ccc(N3CCN(C(=O)CO)CC3)c(F)c2)C(=O)O1` [eperezolid, reference compound], the MIC in data set [1] is 4 µg/mL (≈ 10.1 µM); in data set [2] it was 8 µg/mL (≈ 20.3 µM).

The compound `CNC(=S)N1c2ccc(N3C[C@H](CNC(C)=O)OC3=O)cc2C[C@H]1C` [Example 10, N-[((5S)-3-{(2R)-2-Methyl-1-[(methylamino)carbothioyl]-2,3-dihydro-1H-indol-5-yl}-2-oxo-1,3-oxazolidin-5-yl)methyl]acetamide] gave a melting point of 109 to 111 °C. This compound also displayed an MIC in data set [1] of 4 µg/mL (≈ 11 µM). The MIC in data set [2] is 8 µg/mL (≈ 22.1 µM).

Take `CC(=O)NC[C@H]1CN(c2ccc3c(c2)CCC(C)N3C=O)C(=O)O1` (stereo partly drawn) [Example 13, N-{[(5S)-3-(1-Formyl-2-methyl-1,2,3,4-tetrahydro-6-quinolinyl)-2-oxo-1,3-oxazolidin-5-yl]methyl}acetamide]: the melting point was in the range of 85 to 87 °C.

`CC(=O)NC[C@H]1CN(c2ccc3c(c2)CC(CF)N3C=O)C(=O)O1` (stereo partly drawn) [Example 19, (S)-N-[[3-[1-Formyl-2-(fluoromethyl)-5-indolinyl]-2-oxo-5-oxazolidinyl]methyl]acetamide] displayed a melting point of 132 to 136 °C. The compound also registered an MIC in data set [1] of 4 µg/mL (≈ 11.9 µM). In addition, the MIC in data set [2] was found to be 16 µg/mL (≈ 47.7 µM).

`CC(=O)NC[C@H]1CN(c2ccc3c(c2)CC[C@@H](C)N3C=O)C(=O)O1` [Example 14, N-({(5S)-3-[(2R)-1-Formyl-2-methyl-1,2,3,4-tetrahydro-6-quinolinyl]-2-oxo-1,3-oxazolidin-5-yl}methyl)acetamide] registered a melting point of 89 to 91 °C. Moreover, the MIC in data set [1] was 2 µg/mL (≈ 6.04 µM). Moreover, the MIC in data set [2] is 4 µg/mL (≈ 12.1 µM).

Turning to `CC(=O)NC[C@H]1CN(c2ccc3c(c2)C[C@@H](C)N3C=O)C(=O)O1` [Example 4, N-({(5S)-3-[(2R)-1-Formyl-2-methyl-2,3-dihydro-1H-indol-5-yl]-2-oxo-1,3-oxazolidin-5-yl}methyl)acetamide], the melting point is 158 to 159 °C. In addition, the MIC in data set [1] was found to be 1 µg/mL (≈ 3.15 µM). In addition, in data set [2], the MIC turned out to be 4 µg/mL (≈ 12.6 µM).

Compound `CC(=O)NC[C@H]1CN(c2ccc3c(c2)C[C@@H](C)N3C(=O)COC(C)=O)C(=O)O1` [Example 8, 2-((2R)-5-{(5S)-5-[(Acetylamino)methyl]-2-oxo-1,3-oxazolidin-3-yl}-2-methyl-2,3-dihydro-1H-indol-1-yl)-2-oxoethyl acetate] came in with a melting point of 186 to 187 °C. In data set [1], this compound came in with an MIC of 8 µg/mL. Moreover, in data set [2], the MIC was 16 µg/mL.

Consider `CC(=O)OCC(=O)N1c2ccc(N3C[C@H](CNC(C)=S)OC3=O)cc2C[C@H]1C` [Example 11, 2-((2R)-5-{(5S)-5-[(Ethanethioylamino)methyl]-2-oxo-1,3-oxazolidin-3-yl}-2-methyl-2,3-dihydro-1H-indol-1-yl)-2-oxoethyl acetate], for which the MIC stood at 1 µg/mL in data set [1] and 4 µg/mL in data set [2].

Usually melting point stands for the temperature, or range, at which the solid turns liquid.
